According to patent US7091346B1, “Purine derivatives and processes for their preparation” (Novartis AG, priority 1995, dated 2006):

melting point | SMILES
152 °C | CCn1cnc2c(Nc3ccc(F)cc3)nc(NCCO)nc21 [Example 99, 9-ethyl-6-(4-fluoro-phenyl-amino)-2-(2-hydroxy-ethyl-amino)-9H-purine]
181 °C | COc1cccc(Nc2nc(NCCN)nc3c2ncn3C(C)C)c1 [Example 101, 2-(2-amino-ethyl-amino)-9-isopropyl-6-(3-methoxy-phenyl-amino)-9H-purine]
191 to 192 °C | CCn1cnc2c(Nc3ccc(C(F)(F)F)cc3)nc(NCCO)nc21 [Example 104, 9-Ethyl-2-(2-hydroxy-ethyl-amino)-6-(4-trifluoromethyl-phenyl-amino)-9H-purine]
202 °C | CCn1cnc2c(Nc3cc(C(F)(F)F)cc(C(F)(F)F)c3)nc(NCCO)nc21 [Example 105, 9-ethyl-2-(2-hydroxy-ethyl-amino)-6-(3,5-di-trifluoromethyl-phenyl-amino)-9H-purine]
194 °C | CCn1cnc2c(Nc3ccc(Cl)c(C(F)(F)F)c3)nc(NCCO)nc21 [Example 106, 6-(4-chloro-3-trifluoromethyl-phenyl-amino)-9-ethyl-2-(2-hydroxy-ethyl-amino)-9H-purine]
148 °C | CCn1cnc2c(Nc3ccc(NC(=O)OCc4ccccc4)cc3)nc(NCCO)nc21 [Example 107, 6-(4-benzyloxycarbonylamino-phenyl-amino)-9-ethyl-2-(2-hydroxy-ethyl-amino)-9H-purine]
210 °C | CCn1cnc2c(Nc3ccc(N)cc3)nc(NCCO)nc21 [Example 108, 6-(4-amino-phenyl-amino)-9-ethyl-2-(2-hydroxy-ethyl-amino)-9H-purine]
